{
  "source": "patent US9925280B2",
  "about": "“Hyperpolarized amino acids” (BRACCO IMAGING S.P.A., priority 2012, dated 2018)",
  "test": "Solubility in anhydrous solvents",
  "format": "physicochemical",
  "experimental": "The above components of the DNP mixture can be admixed according to any suitable technique and methodology known in the art. In a preferred embodiment, the amino acid and the hydroxide are first admixed as dry powders. The powder mixture is then dissolved in the anhydrous solvent, which preferably already contains the polarizing agent dissolved therein. […] Optionally, the DNP mixture may further contain a paramagnetic metal ion, for further increasing the polarisation levels in the compound to be polarised (see e.g. WO 2007/064226 herein incorporated by reference); preferably, the paramagnetic metal ion is in the form of a complex with a chelating agent, such as, for instance DOTA, DO3A, BOPTA or DTPA; preferably the paramagnetic metal ion is a Gadolinium (Gd^3+).",
  "data": [
    {"smiles": "NC(=O)CC[C@H](N)C(=O)O", "note": "[glutamine]", "values": [
      {"measurement": "solubility in anhydrous solvents", "result": "very poor solubility"}
    ]}
  ]
}
